Measured values as given in ChEMBL document CHEMBL1139547, “Anesthetic potency of two novel synthetic polyhydric alkanols longer than the n-alkanol cutoff: evidence for a bilayer-mediated mechanism of anesthesia?” (J Med Chem, 2005).

Experiment: Effective concentration for phenotypic endpoint in tadpoles
Design: species or system frog, Tadpole

CCCCCCO [1-HEXANOL]
EC50: ~700 µM
